SMILES strings stand for the structures.

For the experiment, the system named is ERK, AKT and S6K activity in M cells. In words: Immunoblotting of signaling pathways in M cells. In kind it is cell-based, human. The text has this: The following antibodies were used for Western blotting: anti-phospho ERK 1,2 (Sigma St Louis, MO, Reference M8159)), anti-phospho Akt, anti-Akt and anti-phospho S6 Kinase (Cell Signaling, Cambridge, UK, respectively References 4051, 9272, 9234) and anti-TFE3 anti ERKs (Santa Cruz Biotechnology, Santa Cruz, CA references sc 5958 (TFE3) and sc 93 (ERK)).
The effects of the different drugs on proliferation are correlated with the activity of intracellular signaling pathways (ERK and PI3 kinase/AKT/mTOR/S6 kinase (S6K)) in TF cells. […] The effects of the different drugs on signaling pathways have been tested in CC and M cells. […] Everolimus inhibited S6K with reactivation of AKT.
Supplementary file pone.0089449.s001.tif: Figure S1 In vitro sensitivity of the CC and M cells to the different drugs used to treat the patients; specific impact on downstream signaling pathways. A) The activity of major signaling pathways (ERK, PI3K/AKT/mTOR/S6K) in response to the different treatments (sunitinib (Su), sorafenib (So) and everolimus (Ev)) was determined by analysis of the presence of the phosphorylated forms of the kinases (pERK, pAKT, pS6K) in TF cells following a short-term treatment (two hours) by immunoblotting. Tubulin is shown as a loading control. […]

In the case of `CO[C@H]1C[C@@H]2CC[C@@H](C)[C@@](O)(O2)C(=O)C(=O)N2CCCC[C@H]2C(=O)O[C@H]([C@H](C)C[C@@H]2CC[C@@H](OCCO)[C@H](OC)C2)CC(=O)[C@H](C)/C=C(\C)[C@@H](O)[C@@H](OC)C(=O)[C@H](C)C[C@H](C)/C=C/C=C/C=C/1C` [everolimus], the S6K activity entry is reported as “strong inhibition”.

Source of the values: PMC3968004, “The Relevance of Testing the Efficacy of Anti-Angiogenesis Treatments on Cells Derived from Primary Tumors: A New Method for the Personalized Treatment of Renal Cell Carcinoma” (PLoS ONE, 2014).
